# Test results: patent US20120185955A1, “HEDGEHOG INHIBITOR ASSAY” (priority 2005, published 2012)
# What was measured:
# [1] = test system: GLI-induced transcription in Sufu−/− MEFs; test: Substance testing: Hh/Gli reporter 8×GliLuc in Sufu−/− MEFs (inhibition of GLI-induced transcription); format: cell-based, mouse; conditions: 72 h of treatment
# Procedure: Inhibition of GLI-induced transcription. (A) Sufu^−/− MEFs were transfected with Hh/Gli reporter plasmid 8×GliLuc and a renilla luciferase plasmid for normalisation. Luciferase activity was measured after 72 h of treatment time with the indicated compound.
# For the substance testing, Sufu−/− MEF cells are transfected with 8×Gli and phRL-SV40 (or phRL-TK) plasmids using Fugene transfection reagent on larger plates. The day after transfection, cells are replated on suitable microwell plates. When cells reach confluency, substances, which are tested for inhibiting activity, (dissolved in DMSO) are added at a concentration of approximately 10 μM, or any other appropriate concentration. As control, the same volume of only DMSO without test compound is added (reaching a final concentration of e.g. 0.5-2% of DMSO in the cell culture medium) in order to assess solvent-based effects. Cells are lysed approximately 3-4 days later, and luciferase levels are measured using the Dual-Reporter Luciferase system (Promega) or any other suitable method.
# Signals were recorded using the Dual Luciferase Kit (Promega) for luciferase measurements and Galacto-Light Plus (Applied Biosystems) for β-Galactosidase measurements.
# Gli1 = conditions: HEK293 cells transfected with Gli1 plasmid; 48 h treatment
# Procedure: (§1) Luciferase activity was measured after 72 h of treatment time with the indicated compound. […] (B) Gli1 inhibition, (C) Gli2 inhibition in HEK293 cells. Treatment was for 48 h after transfection of the corresponding Gli plasmid and a Hh/Gli reporter (12×GliBS-Luc) and a renilla luciferase plasmid for normalisation.
# (§2) Transfections were done using Fugene (Roche) according to instructions given by the manufacturer.
# (§3) Hh reporter assays were performed essentially as described (59, 60). Signals were recorded using the Dual Luciferase Kit (Promega) for luciferase measurements and Galacto-Light Plus (Applied Biosystems) for β-Galactosidase measurements.
# Gli2 = conditions: HEK293 cells transfected with Gli2 plasmid; 48 h treatment
# Procedure: as §1, §2, §3
# [2] = test system: β-Galactosidase reporter enzyme (pSV40-lacZ); test: Gli-independent β-Galactosidase construct (pSV40-lacZ) control; format: cell-based
# [3] = test system: Gli reporter activity in Sufu−/− MEFs; test: 8×GliLuc luciferase reporter assay in Sufu−/− MEFs; format: cell-based, mouse
# Procedure: For the luciferase reporter assays, 20,000 MEF cells were seeded into each well of a 24-well plate in MEF medium. The following day, cells were transfected using FuGENE 6 (Roche) with 300 ng of the luciferase reporter plasmids 8×GliLuc and 8×Gli^mutLuc (58) with or without 300 ng of the pMYC-SUFU expression plasmid (9), 300 ng of a constitutively active PKA catalytic subunit expression plasmid (59) or with 300 ng of the TOPflash and FOPflash reporter plasmids (Upstate Biotechnology), together with 50 ng the Renilla luciferase phRL-TK reporter (Promega) to monitor the transfection efficiency. […] The assays were conducted in triplicate and repeated at least three times. The values were normalized to the Renilla reporter before calculating relative levels.
# [4] = test system: EGFP::Gli1 nuclear export in MEFs; test: GLI1 subcellular localization in MEFs (EGFP::GLI1, confocal); format: cell-based, mouse; conditions: Wt, Sufu−/− and Ptch1−/− MEFs; 10 ng/ml Leptomycin B, 3-6 hours
# Procedure: Wt, Sufu^−/− and Ptch1^−/− MEFs (1×10^6 cells) were each transfected with 5 μg of the expression constructs containing GLI1 cDNA fused in frame 3′ of EGFP [EGFP::GLI1, (9)] or with the parental EGFP plasmid alone (BD Biosciences Clontech) in MEF 1 solution using Nucleofector technology, program T-20 (Amaxa Biosystems), and seeded onto slide chambers followed by culturing overnight. Twenty-four hours after transfection, cells were either treated with 10 ng/ml Leptomycin B (Sigma) for 3-6 hours or left untreated, washed in PBS, fixed in 4% PFA, washed in PBS again and incubated with DRAQ5 (Alexis Biochemicals) for visualization of cell nuclei, followed by mounting using ProLong Gold antifade reagent (Invitrogen). Fluorescence was visualized using a Zeiss LSM510 confocal microscope with lasers set at 488 nm for EGFP and at 633 nm for DRAQ5.
smiles,measurement,setting,value
CC1=C2C[C@H]3[C@@H](CC=C4C[C@@H](O)CC[C@@]43C)[C@@H]2CC[C@]12O[C@@H]1C[C@H](C)CN[C@H]1[C@H]2C [Cyclopamine],"Luciferase signal intensity (8×GliLuc, renilla-normalised)",[1],ineffective
same,Gli1 inhibition (12×GliBS-Luc reporter),Gli1,inactive
same,Gli2 inhibition (12×GliBS-Luc reporter),Gli2,inactive
"CN(C)CCCNc1ccc2c(c1)C(=O)c1ccccc1C2=O [GANT55, 2-(3-Dimethylamino-propylamino)-anthraquinone]","Luciferase signal intensity (8×GliLuc, renilla-normalised)",[1],reduces signal intensity in a dose-dependent manner
same,Unspecific inhibition of the β-Galactosidase reporter enzyme,[2],not due to unspecific inhibition of the reporter enzyme
O=S(=O)(NCCNC/C=C/c1ccc(Br)cc1)c1cccc2cnccc12 [H-89],Effect on the Gli response (8×GliLuc),"[3]; MEFs, 1 μM H-89, one day",no significant effect
"CCC(=C/[C@H](C)C/C=C/C(C)=C/[C@@H](C)C(=O)[C@@H](C)[C@H](O)[C@@H](C)C/C(C)=C/C(=O)O)/C=C/[C@@H]1OC(=O)C=C[C@@H]1C [LMB, Leptomycin B]",Subcellular localization of EGFP::Gli1 fusion protein,[4],strong nuclear retention
CNC1CCC(N(Cc2cccc(-c3ccncc3)c2)C(=O)c2sc3ccccc3c2Cl)CC1 (stereo not drawn) [SAG],Effect on Gli reporter activity (8×GliLuc),"[3]; Sufu−/− MEFs, 10 μM cyclopamine or 100 nM SAG for two days",No further increase in Gli reporter activity
C=C[C@@]1(C)CC(=O)[C@]2(O)[C@@]3(C)[C@@H](O)CCC(C)(C)[C@@H]3[C@H](O)[C@H](OC(C)=O)[C@@]2(C)O1 [forskolin],inhibition at 100 µM,"[3]; Mus musculus, 24 h, Sufu−/− MEFs, 100 μM forskolin, one day, read-out: Inhibition of the Gli-mediated response",~50%
